According to US4310660A, “Lincomycin compounds” (The Upjohn Company, priority 1980, dated 1982):
Structures can show the parent of a compound that is named as a salt. Where two headings read alike, the source gives them in different places.

Experiments:
Fusobacterium varium = experiment: MIC vs. anaerobic bacteria, agar dilution; assay type: cell-based; conditions: UC6052, UC 6052, read-out: Minimal Inhibitory Concentration (MIC)
Clostridium cadaveris = experiment: MIC vs. anaerobic bacteria, agar dilution; assay type: cell-based; conditions: UC6510, UC 6510, read-out: Minimal Inhibitory Concentration (MIC)
Eubacterium limosum = experiment: MIC vs. anaerobic bacteria, agar dilution; assay type: cell-based; conditions: UC6515, UC 6515, read-out: Minimal Inhibitory Concentration (MIC)
[1] = tested on: Peptostreptococcus anaerobius; experiment: MIC vs. anaerobic bacteria, agar dilution; assay type: cell-based; conditions: UC6321, UC 6321, read-out: Minimal Inhibitory Concentration (MIC)
S. aureus = experiment: Mouse Protection Test; assay type: in vivo; conditions: Staphylococcus aureus
Description: (§1) Immediately before use, the suspensions were thawed quickly and properly diluted. Infection was via the intrapertioneal route.
(§2) Treatment of the infected groups was begun immediately and continued once per day for 4 days (first 24 hr period=1). Groups of untreated mice served as virulence controls for the culture.
(§3) Seven days after the treatment regimen was begun the surviving animals were sacrificed and the median protective dose of the antibiotic calculated on the basis of mortality rates in the treatment groups. The median protective dose and its 95% confidence interval were calculated according to the method of Spearmen & Karber as programmed on a 360 digital computer.

K. pneumoniae = experiment: Mouse Protection Test; assay type: in vivo; conditions: Klebsiella pneumoniae, 168 h; route not given; once per day for 4 days; read-out: CD50 (median protective dose)
Description: as §1, §2, §3

S. hemolyticus = experiment: Mouse Protection Test; assay type: in vivo; conditions: for ED50: 168 h
Description: as §1, §2, §3

Propionibacterium acnes = experiment: MIC vs. anaerobic bacteria, agar dilution; assay type: cell-based; conditions: Cutibacterium acnes
[2] = tested on: Peptococcus asaccharolyticus; experiment: MIC vs. anaerobic bacteria, agar dilution; assay type: cell-based; conditions: Peptoniphilus asaccharolyticus, UC6214, UC 6214, read-out: Minimal Inhibitory Concentration (MIC)
Clostridium tertium = experiment: MIC vs. anaerobic bacteria, agar dilution; assay type: cell-based; conditions: UC6508, UC 6508, read-out: Minimal Inhibitory Concentration (MIC)
Clostridium difficile = experiment: MIC vs. anaerobic bacteria, agar dilution; assay type: cell-based; conditions: Clostridioides difficile
[3] = Acute I.P. toxicity in the mouse (LD50); assay type: in vivo
Description: This value is the resulting mean of two separate and identical LD50 determinations.

[4] = tested on: Bacteroides thetaiotaomicon; experiment: MIC vs. anaerobic bacteria, agar dilution; assay type: cell-based; conditions: UC6512, UC 6512, read-out: Minimal Inhibitory Concentration (MIC)
Bacteroides distasonis = experiment: MIC vs. anaerobic bacteria, agar dilution; assay type: cell-based; conditions: Parabacteroides distasonis, UC6518, UC 6518, read-out: Minimal Inhibitory Concentration (MIC)
D. pneumoniae I = experiment: Mouse Protection Test; assay type: in vivo; conditions: Streptococcus pneumoniae, 168 h, strain Felton I, read-out: Median Protective Dose (CD50)
Description: as §1, §2, §3
(§4) U-60,970E was also tested in vivo in standard laboratory mice which were experimentally infected with bacteria. The test was conducted in comparison with U-57,930E.

D. pneumoniae III = experiment: Mouse Protection Test; assay type: in vivo; conditions: strain MPI III, two experiments listed; for ED50: Streptococcus pneumoniae, 168 h, read-out: Median Protective Dose (CD50); for Median Protective Dose (CD50): 10080 min, listed as U-57930E . Hcl
Description: as §1, §2, §3, §4

Peptococcus aerogenes = experiment: MIC vs. anaerobic bacteria, agar dilution; assay type: cell-based; conditions: Peptoniphilus asaccharolyticus, UC6319, UC 6319, read-out: Minimal Inhibitory Concentration (MIC)

## CC[C@@H]1CCN[C@H](C(=O)N[C@@H]([C@H]2O[C@H](SC)[C@H](O)[C@@H](O)[C@H]2O)[C@H](C)Cl)C1 [U-57,930E, 4-Cis-ethyl-1-pipecolic acid amide of 7-Cl-MTL.HCl]
Fusobacterium varium
  MIC: 3.9 µg/mL
Clostridium cadaveris
  MIC: 0.06 µg/mL
Eubacterium limosum
  MIC: 2 µg/mL
[1]
  MIC: 0.12 µg/mL
S. aureus; 168 h, oral, once per day for 4 days, 95% confidence interval, read-out: CD50 (median protective dose)
  ED50: 1 to 5 mg/kg
S. aureus; UC76, 168 h, strain UC 76, oral, read-out: Median Protective Dose (CD50)
  ED50: 8.12 mg/kg
S. aureus; UC76, sc, 168 h, strain UC 76, subcutaneous, read-out: Median Protective Dose (CD50)
  ED50: 1.07 mg/kg
S. aureus; sc, 168 h, read-out: CD50 (median protective dose)
  ED50: < 5 mg/kg
K. pneumoniae
  ED50: > 320 mg/kg
S. hemolyticus; oral, once per day for 4 days, 95% confidence interval, read-out: CD50 (median protective dose)
  ED50: 2.9 mg/kg
S. hemolyticus; strain C203, oral, read-out: Median Protective Dose (CD50)
  ED50: 3.79 mg/kg
S. hemolyticus; oral
  Ratio (clindamycin / U-57930A CD50): 4.2
S. hemolyticus; sc, strain C203, subcutaneous, read-out: Median Protective Dose (CD50)
  ED50: 0.38 mg/kg
S. hemolyticus; sc, subcut., once per day for 4 days, 95% confidence interval, two experiments listed, read-out: CD50 (median protective dose)
  ED50: 0.25 mg/kg
Propionibacterium acnes; UC6564, UC 6564, read-out: Minimal Inhibitory Concentration (MIC)
  MIC: 0.12 µg/mL
Propionibacterium acnes; UC6575, UC 6575, read-out: Minimal Inhibitory Concentration (MIC)
  MIC: 0.06 µg/mL
[2]
  MIC: 0.25 µg/mL
Clostridium tertium
  MIC: 7.8 µg/mL
Clostridium difficile; UC6834, UC 6834, read-out: Minimal Inhibitory Concentration (MIC)
  MIC: 3.9 µg/mL
Clostridium difficile; UC6857, UC 6857, read-out: Minimal Inhibitory Concentration (MIC)
  MIC: 125 µg/mL
Clostridium difficile; UC6858, UC 6858, read-out: Minimal Inhibitory Concentration (MIC)
  MIC: 3.9 µg/mL
Clostridium difficile; UC6860, UC 6860, read-out: Minimal Inhibitory Concentration (MIC)
  MIC: 500 µg/mL
Clostridium difficile; UC6861, UC 6861, read-out: Minimal Inhibitory Concentration (MIC)
  MIC: 2 µg/mL
[3]
  LD50 as multiple of the LD50 for clindamycin HCl: approximately 2 times
  acute I.P. toxicity relative to clindamycin HCl: approximately one-half
[3]; in vivo, ip, mean of two determinations
  LD50: 592 mg/kg
[4]
  MIC: 0.5 µg/mL
Bacteroides distasonis
  MIC: ≤ 0.03 µg/mL
D. pneumoniae I; oral
  ED50: 15.4 mg/kg
D. pneumoniae I; sc, subcutaneous
  ED50: 1.54 mg/kg
D. pneumoniae III; po, oral
  ED50: 14.4 mg/kg
D. pneumoniae III; sc, subcutaneous
  ED50: 2.68 mg/kg
D. pneumoniae III; oral
  Median Protective Dose (CD50): 16.49 (10.51-25.88) mg/kg
D. pneumoniae III; subcutaneous
  Median Protective Dose (CD50): 2.5 (1.69-3.69) mg/kg
Peptococcus aerogenes
  MIC: 0.06 µg/mL
